According to publication PMC5620987 (ACS Central Science, 2017):
Where two headings read alike, the source gives them in different places.

How the values were obtained:
α-tubulin-ac = type: cell-based; settings: 6 h, human iPSC-derived NPCs, Western blot
H4K12ac = type: cell-based; settings: 6 h, human iPSC-derived NPCs, Western blot
H3K9ac = type: cell-based; settings: 6 h, human iPSC-derived NPCs, Western blot
HDAC6 = HDAC6 (Rattus norvegicus, UniProt A0A8I6GM68); experiment: Autoradiography with [18F]Bavarostat on rat brain slices; type: binding, Sprague–Dawley rat; settings: sagittal rat brain slices; 10 μM per Figure 4 legend (100 μM per method)
HDAC6, sequence (A0A8I6GM68 whole entry): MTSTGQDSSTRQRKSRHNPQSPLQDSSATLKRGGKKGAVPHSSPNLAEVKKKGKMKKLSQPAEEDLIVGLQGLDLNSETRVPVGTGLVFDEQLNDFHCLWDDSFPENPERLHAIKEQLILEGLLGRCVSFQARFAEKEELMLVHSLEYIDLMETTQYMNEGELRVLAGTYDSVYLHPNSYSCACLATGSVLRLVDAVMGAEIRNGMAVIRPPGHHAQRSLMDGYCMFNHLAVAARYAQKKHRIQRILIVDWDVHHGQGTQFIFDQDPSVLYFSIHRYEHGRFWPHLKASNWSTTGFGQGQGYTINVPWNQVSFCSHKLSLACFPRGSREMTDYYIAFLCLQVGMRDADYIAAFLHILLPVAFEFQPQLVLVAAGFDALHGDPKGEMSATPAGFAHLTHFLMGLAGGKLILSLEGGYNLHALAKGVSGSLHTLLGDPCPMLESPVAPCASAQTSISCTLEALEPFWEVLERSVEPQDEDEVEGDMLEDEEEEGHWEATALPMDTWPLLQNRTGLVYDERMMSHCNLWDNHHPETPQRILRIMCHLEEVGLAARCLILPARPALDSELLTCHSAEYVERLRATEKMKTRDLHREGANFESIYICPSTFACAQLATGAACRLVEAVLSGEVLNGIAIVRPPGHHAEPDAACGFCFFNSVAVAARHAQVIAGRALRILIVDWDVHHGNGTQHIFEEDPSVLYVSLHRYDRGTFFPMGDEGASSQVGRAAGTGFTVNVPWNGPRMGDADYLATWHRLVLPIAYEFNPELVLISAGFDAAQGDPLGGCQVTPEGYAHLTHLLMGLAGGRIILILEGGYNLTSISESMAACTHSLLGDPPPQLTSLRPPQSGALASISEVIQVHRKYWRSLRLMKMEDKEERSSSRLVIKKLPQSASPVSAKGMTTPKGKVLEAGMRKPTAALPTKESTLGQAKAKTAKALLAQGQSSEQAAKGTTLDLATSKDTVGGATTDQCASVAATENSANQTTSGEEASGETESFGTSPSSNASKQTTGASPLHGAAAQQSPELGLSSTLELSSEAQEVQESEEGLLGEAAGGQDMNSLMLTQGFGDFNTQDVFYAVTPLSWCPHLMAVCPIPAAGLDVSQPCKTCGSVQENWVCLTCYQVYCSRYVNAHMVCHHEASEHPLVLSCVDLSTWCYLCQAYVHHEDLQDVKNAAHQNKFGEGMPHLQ

Reduction of bound [18F]Bavarostat radioactivity (HDAC6) | Compound | α-tubulin acetylation level (α-tubulin-ac) vs DMSO (α-tubulin-ac; 5 μM) | H4K12ac level vs DMSO (H4K12ac; 5 μM) | H3K9ac level vs DMSO (H3K9ac; 5 μM) | α-tubulin acetylation level (α-tubulin-ac) vs DMSO (α-tubulin-ac; 10 μM) | H4K12ac level vs DMSO (H4K12ac; 10 μM) | H3K9ac level vs DMSO (H3K9ac; 10 μM)
 | O=C(CCCCCCNC(=O)c1cnc(N(c2ccccc2)c2ccccc2)nc1)NO [ACY-1215] | effectively increased | increased | increased |  |  | 
comparable level as Bavarostat | CN1CCc2c(c3ccccc3n2Cc2ccc(C(=O)NO)cc2)C1 [Tubastatin A] |  |  |  | significantly increased |  | 
 | CC(=O)Nc1ccc(C(=O)Nc2ccccc2N)cc1 [CI-994] |  |  |  | not α-tubulin-ac | significant increase | significant increase
